Measured values: ChEMBL document CHEMBL1201862, “PubChem BioAssay data set” (2004)
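Protocol summary: plate cells (96-well), add compound at 5 concentrations, incubate 48 h, interpolate endpoints linearly. Abbreviation: GI50, concentration required for 50% inhibition of growth.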 Activity calls are given as the source filed them. Rule as the data show it: active = GI50 up to about 1.1 µM and inactive = higher.

Tests used:
Experiment in all cases: NCI-60 cell line screen, 48 h
U-251 = system: U-251
OVCAR-8 = system: OVCAR-8
KM12 = system: KM12
OVCAR-3 = system: OVCAR-3
NCI-H460 = system: NCI-H460
HCT-116 = system: HCT-116
HT-29 = system: HT-29
DU-145 = system: DU-145
IGROV-1 = system: IGROV-1
T47D = system: T47D
CAKI-1 = system: CAKI-1
OVCAR-5 = system: OVCAR-5
LOX IMVI = system: LOX IMVI
UACC-257 = system: UACC-257
ACHN = system: ACHN
CCRF-CEM = system: CCRF-CEM
UACC-62 = system: UACC-62
A549 = system: A549
NCI/ADR-RES = system: NCI/ADR-RES
OVCAR-4 = system: OVCAR-4
TK-10 = system: TK-10
BT-549 = system: BT-549
SNB-75 = system: SNB-75
EKVX = system: EKVX
SR = system: SR
K562 = system: K562
HOP-62 = system: HOP-62
HCT-15 = system: HCT-15
Malme-3M = system: Malme-3M
SW-620 = system: SW-620
NCI-H522 = system: NCI-H522
NCI-H226 = system: NCI-H226
SK-MEL-2 = system: SK-MEL-2
SK-MEL-28 = system: SK-MEL-28
HOP-92 = system: HOP-92
SNB-19 = system: SNB-19
MDA-MB-435 = system: MDA-MB-435
786-0 = system: 786-0
NCI-H23 = system: NCI-H23
MDA-MB-231 = system: MDA-MB-231
SN12C = system: SN12C
SK-MEL-5 = system: SK-MEL-5
MDA-N = system: MDA-N
Hs-578T = system: Hs-578T
RXF 393 = system: RXF 393
MOLT-4 = system: MOLT-4
SF-295 = system: SF-295
A498 = system: A498
HCC 2998 = system: HCC 2998
M14 = system: M14
PC-3 = system: PC-3
SF-268 = system: SF-268
UO-31 = system: UO-31
SK-OV-3 = system: SK-OV-3
SF-539 = system: SF-539
MCF7 = system: MCF7
HL-60 = system: HL-60
COLO 205 = system: COLO 205

## O=C(NCCO)c1ccc(Cl)cc1
U-251
  GI50: > 100 µM (inactive)
OVCAR-8
  GI50: > 100 µM (inactive)
KM12
  GI50: > 100 µM (inactive)
OVCAR-3
  GI50: > 100 µM (inactive)
NCI-H460
  GI50: > 100 µM (inactive)
HCT-116
  GI50: > 100 µM (inactive)
HT-29
  GI50: > 100 µM (inactive)
DU-145
  GI50: > 100 µM (inactive)
IGROV-1
  GI50: > 100 µM (inactive)
T47D
  GI50: > 100 µM (inactive)
CAKI-1
  GI50: > 100 µM (inactive)
OVCAR-5
  GI50: > 100 µM (inactive)
LOX IMVI
  GI50: > 100 µM (inactive)
UACC-257
  GI50: > 100 µM (inactive)
ACHN
  GI50: > 100 µM (inactive)
CCRF-CEM
  GI50: 26.1 µM (inactive)
UACC-62
  GI50: > 100 µM (inactive)
A549
  GI50: > 100 µM (inactive)
NCI/ADR-RES
  GI50: > 100 µM (inactive)
OVCAR-4
  GI50: > 100 µM (inactive)
TK-10
  GI50: > 100 µM (inactive)
BT-549
  GI50: > 100 µM (inactive)
SNB-75
  GI50: > 100 µM (inactive)
EKVX
  GI50: > 100 µM (inactive)
SR
  GI50: > 100 µM (inactive)
K562
  GI50: > 100 µM (inactive)
HOP-62
  GI50: > 100 µM (inactive)
HCT-15
  GI50: > 100 µM
Malme-3M
  GI50: > 100 µM (inactive)
SW-620
  GI50: > 100 µM (inactive)
NCI-H522
  GI50: > 100 µM (inactive)
NCI-H226
  GI50: > 100 µM (inactive)
SK-MEL-2
  GI50: > 100 µM (inactive)
SK-MEL-28
  GI50: > 100 µM (inactive)
HOP-92
  GI50: > 100 µM (inactive)
SNB-19
  GI50: > 100 µM (inactive)
MDA-MB-435
  GI50: > 100 µM (inactive)
786-0
  GI50: > 100 µM (inactive)
NCI-H23
  GI50: > 100 µM (inactive)
MDA-MB-231
  GI50: > 100 µM (inactive)
SN12C
  GI50: > 100 µM (inactive)
SK-MEL-5
  GI50: > 100 µM (inactive)
MDA-N
  GI50: > 100 µM (inactive)
Hs-578T
  GI50: > 100 µM (inactive)
RXF 393
  GI50: > 100 µM (inactive)
MOLT-4
  GI50: > 100 µM (inactive)
SF-295
  GI50: > 100 µM (inactive)
A498
  GI50: > 100 µM (inactive)
HCC 2998
  GI50: > 100 µM (inactive)
M14
  GI50: > 100 µM (inactive)
PC-3
  GI50: > 100 µM (inactive)
SF-268
  GI50: > 100 µM (inactive)
UO-31
  GI50: > 100 µM (inactive)

## CCOC(=O)c1cnn2c1ncc1c(=O)n(NC(N)=O)ccc12
U-251
  GI50: > 100 µM (inactive)
OVCAR-8
  GI50: > 100 µM (inactive)
KM12
  GI50: > 100 µM (inactive)
OVCAR-3
  GI50: > 100 µM (inactive)
NCI-H460
  GI50: > 100 µM (inactive)
HCT-116
  GI50: > 100 µM (inactive)
HT-29
  GI50: > 100 µM (inactive)
DU-145
  GI50: > 100 µM (inactive)
IGROV-1
  GI50: > 100 µM (inactive)
T47D
  GI50: > 100 µM (inactive)
CAKI-1
  GI50: > 100 µM (inactive)
OVCAR-5
  GI50: > 100 µM (inactive)
LOX IMVI
  GI50: > 100 µM (inactive)
UACC-257
  GI50: > 100 µM (inactive)
ACHN
  GI50: > 100 µM (inactive)
CCRF-CEM
  GI50: > 100 µM (inactive)
UACC-62
  GI50: > 100 µM (inactive)
SK-OV-3
  GI50: > 100 µM (inactive)
A549
  GI50: > 100 µM (inactive)
OVCAR-4
  GI50: > 100 µM (inactive)
TK-10
  GI50: > 100 µM (inactive)
BT-549
  GI50: 94.8 µM (inactive)
SNB-75
  GI50: > 100 µM (inactive)
EKVX
  GI50: > 100 µM (inactive)
HOP-62
  GI50: > 100 µM (inactive)
HCT-15
  GI50: > 100 µM
Malme-3M
  GI50: > 100 µM (inactive)
SW-620
  GI50: > 100 µM (inactive)
NCI-H522
  GI50: > 100 µM (inactive)
NCI-H226
  GI50: > 100 µM (inactive)
SF-539
  GI50: > 100 µM (inactive)
MCF7
  GI50: > 100 µM (inactive)
SK-MEL-2
  GI50: > 100 µM (inactive)
SK-MEL-28
  GI50: > 100 µM (inactive)
HOP-92
  GI50: > 100 µM (inactive)
SNB-19
  GI50: > 100 µM (inactive)
MDA-MB-435
  GI50: > 100 µM (inactive)
HL-60
  GI50: > 100 µM (inactive)
786-0
  GI50: > 100 µM (inactive)
NCI-H23
  GI50: > 100 µM (inactive)
MDA-MB-231
  GI50: > 100 µM (inactive)
SN12C
  GI50: > 100 µM (inactive)
SK-MEL-5
  GI50: > 100 µM (inactive)
MDA-N
  GI50: > 100 µM (inactive)
Hs-578T
  GI50: > 100 µM (inactive)
MOLT-4
  GI50: > 100 µM (inactive)
COLO 205
  GI50: > 100 µM (inactive)
SF-295
  GI50: > 100 µM (inactive)
A498
  GI50: > 100 µM (inactive)
M14
  GI50: > 100 µM (inactive)
PC-3
  GI50: > 100 µM (inactive)
SF-268
  GI50: > 100 µM (inactive)
UO-31
  GI50: > 100 µM (inactive)
